Reference: patent publication US9102607B2 (priority 2009, dated 2015)
In brackets after ≈: the same amount, converted by molar mass. Several values for one entry are separate records, joined by “and”; a condition that tells them apart may be missing. Equal values may be shown once. Read-outs that look alike come from different tables or passages of the source.

Assays:
TPA-induced ear oedema = assay: Anti-inflammatory activity after a single topical administration in TPA-induced ear oedema; format: in vivo, mouse; settings: for Inhibition vs TPA (%) / Ear oedema Mean / anti-inflammatory effect (in words): single topical application; for Inhibition vs TPA (%): T6 h; for Ear oedema Mean: ear thickness at T6 h; for anti-inflammatory effect compared to BPO 5% (in words): compared to BPO at 5%
Method: the aim is to evaluate the anti-inflammatory activity of the peroxides by measuring the thickness of mouse ear after TPA topical application. The anti-inflammatory activity is defined as a inhibition percentage of the TAP-induced ear oedema.
An oedema was induced by a single topical application of 20 μl of TPA dissolved in acetone at 0.01%.
Then a single topical application of tested compounds dissolved in TPA solution.
Ear thickness was measured at T6 h.
Results are expressed in percentages based on the inhibition on the oedema induced by the TPA application.
Benzoyl peroxide (BPo) was tested 2 times as a reference peroxide.

P. acnes CIP53.117 = assay: microbe, parasite or virus in culture; format: cell-based, Propionibacterium acnes
[1] = compound 5% in TPA 0.01% solution
[2] = Cutibacterium acnes, CIP53, 72 h
[3] = compound 1% in TPA 0.01% solution
[4] = compound 2.5% in TPA 0.01% solution

Row | Compound | Inhibition vs TPA (%) (TPA-induced ear oedema; [1]) | Ear oedema Mean (TPA-induced ear oedema; [1]) | MIC (P. acnes CIP53.117; [2]) [µg/mL] | anti-inflammatory effect (in words) (TPA-induced ear oedema; 1%, 2.5% and 5%) | anti-inflammatory effect compared to BPO 5% (in words) (TPA-induced ear oedema) | Inhibition vs TPA (%) (TPA-induced ear oedema; [3]) | Ear oedema Mean (TPA-induced ear oedema; [3]) | Inhibition vs TPA (%) (TPA-induced ear oedema; [4]) | Ear oedema Mean (TPA-induced ear oedema; [4]) | anti-inflammatory effect (in words) (TPA-induced ear oedema; at 5%) | MIC (P. acnes CIP53.117) [µg/mL]
1 | O=C(OOC(=O)c1ccccc1)c1ccccc1 [BPO, Benzoyl peroxide, reference compound] | 21.4% and 27.8% | 17.60 and 20.80 | – | – | – | – | – | – | – | – | –
2 | CCOC(=O)Oc1ccccc1C(=O)OOC(=O)c1ccccc1 [Example 1, (2-(Ethoxycarbonyloxy)benzoyl)benzoyl peroxide] | 53.5% | 13.40 | 80 (≈ 242 µM) | dose-dependent anti-inflammatory effect | significantly superior | 13.9 | 24.80 | 29.9 | 20.20 | – | –
3 | CC(C)(C)OC(=O)Oc1ccccc1C(=O)OOC(=O)c1ccccc1 [Example 2, (2-(tert-Butoxycarbonyloxy)benzoyl)benzoyl peroxide] | – | – | 40 (≈ 112 µM) | – | – | – | – | – | – | – | –
4 | CCOC(=O)Oc1ccccc1C(=O)OOC(=O)c1ccccc1OC(=O)OCC [Example 3, Bis(2-(ethoxycarbonyloxy)benzoyl)peroxide] | 81.1% | 4.80 | 160 (≈ 382 µM) | strong dose-dependent anti-inflammatory effect | – | 45.7 | 13.80 | 66.1 | 8.60 | – | –
5 | CC(C)OC(=O)Oc1ccccc1C(=O)OOC(=O)c1ccccc1 [Example 5, (2-(Isopropoxycarbonyloxy)benzoyl)benzoyl peroxide] | 72.3% | 6.20 | 40 (≈ 116 µM) | – | stronger anti-inflammatory effect | 8.9 | 20.40 | 44.6 | 12.40 | significant anti-inflammatory effect | –
6 | CC(C)OC(=O)Oc1ccccc1C(=O)OOC(=O)c1ccccc1OC(=O)OC(C)C [Example 6, Bis(2-(isopropoxycarbonyloxy)benzoyl)peroxide] | 93.8% | 1.40 | 80 (≈ 179 µM) | strong dose-dependent anti-inflammatory effect | stronger anti-inflammatory effect | 57.1 | 9.60 | 78.6 | 4.80 | – | –
7 | CC(C)(C)C(=O)Oc1ccccc1C(=O)OOC(=O)c1ccccc1 [Example 9, (2-(tert-Butyryloxy)benzoyl)benzoyl peroxide] | – | – | – | – | – | – | – | – | – | – | 320 (≈ 935 µM)
8 | CC(C)C(=O)Oc1ccccc1C(=O)OOC(=O)c1ccccc1 [Example 10, (2-(Isobutyryloxy)benzoyl)benzoyl peroxide] | – | – | 80 (≈ 244 µM) | – | – | – | – | – | – | – | –
9 | O=C(CC12CC3CC(CC(C3)C1)C2)Oc1ccccc1C(=O)OOC(=O)c1ccccc1 [Example 12, [2-(2-(Adamantan-1-yl)acetoxy)benzoyl]benzoyl peroxide] | – | – | 320 (≈ 736 µM) | – | – | – | – | – | – | – | –
